The source of these data is ChEMBL document CHEMBL4251565, “Functionalized 2,1-benzothiazine 2,2-dioxides as new inhibitors of Dengue NS5 RNA-dependent RNA polymerase” (Eur J Med Chem, 2018).

Data set [1] relates to O=C(OC1=CS(=O)(=O)Nc2ccc(Oc3ccccc3Br)cc21)c1ccc(F)c(F)c1. Kind of data set: Mixed type inhibition of DENV3 NS5 RdRp using increasing concentration of ss-RNA PolyC as template assessed as Km for substrate after 1 hr in presence of GTP substrate after 1 hr by Lineweaver-Burk double reciprocal plot analysis. Conditions: dengue virus type 3.
Data set [2] has the same test system. In words: Mixed type inhibition of DENV3 NS5 RdRp using increasing concentration of GTP as substrate assessed as Km for substrate after 1 hr in presence of ss-RNA PolyC template by Lineweaver-Burk double reciprocal plot analysis. Conditions: dengue virus type 3.
For data set [3] the test system is unchanged. Kind of data set: Mixed type inhibition of DENV3 NS5 RdRp using increasing concentration of ss-RNA PolyC as template assessed as enzyme Vmax after 1 hr in presence of GTP substrate by Lineweaver-Burk double reciprocal plot analysis. Conditions: dengue virus type 3.
For data set [4] the test system is unchanged. Kind of data set: Mixed type inhibition of DENV3 NS5 RdRp using increasing concentration of GTP as substrate assessed as enzyme Vmax after 1 hr in presence of ss-RNA PolyC template by Lineweaver-Burk double reciprocal plot analysis. Conditions: dengue virus type 3.
For data set [5], the target named is Nonstructural protein 5 (Dengue virus) (UniProt V5TFZ2). Kind of data set: Binding affinity to DENV3 NT-647-NHS labeled NS5 RdRp after 1 hr in presence of ss-RNA PolyC as template and GTP as substrate by microscale thermophoresis method. Conditions: dengue virus type 3. For orientation: Microscale thermophoresis detects binding through changes in fluorescence in a small temperature gradient.

A further data set concerns dengue virus type 2. In words: Antiviral activity against DENV2 clinical strain infected in African green monkey Vero E6 cells assessed as decrease in viral RNA levels up to 20 uM by qRT-PCR method. The format is functional, organism-based. Conditions: Vero C1008.
A further data set relates to Zika virus. Kind of data set: Antiviral activity against Zika virus clinical strain infected in African green monkey Vero E6 cells assessed as decrease in viral RNA levels up to 20 uM by qRT-PCR method. In kind it is functional, organism-based. Conditions: Vero C1008. In general terms: In qPCR the cycle at which signal appears reflects the starting amount.
The test system of a further data set is dengue virus type 3. In words: Antiviral activity against DENV3 clinical strain infected in African green monkey Vero E6 cells assessed as decrease in viral RNA levels up to 20 uM by qRT-PCR method. The format is functional, organism-based. Conditions: Vero C1008.
Another data set relates to West Nile virus. Kind of data set: Antiviral activity against WNV clinical strain infected in African green monkey Vero E6 cells assessed as decrease in viral RNA levels up to 20 uM by qRT-PCR method. In kind it is functional, organism-based. Conditions: Vero C1008.
Data set [6] deals with Nonstructural protein 5 (Dengue virus) (UniProt V5TFZ2). Kind of data set: Inhibition of DENV3 NS5 RdRp using ss-RNA PolyC as template and GTP as substrate assessed as decrease in dsRNA levels after 1 hr in presence of tritonX100 by PicoGreen-based fluorescence assay. Conditions: dengue virus type 3.

Active and inactive are the calls of the source. The calls are words filed in the database; no cut-off is given here.

In the case of “Nonstructural protein 5 (Dengue virus), V5TFZ2”, the Km in data set [1] worked out at 0.907 µM; in data set [2], 5.29 µM. The Vmax in data set [3] worked out at 23.2 nM/min; in data set [4] it was 15.8 nM/min.
`O=C(OC1=CS(=O)(=O)Nc2ccc(Oc3ccccc3Br)cc21)c1ccc(F)c(F)c1`: in [5], the result was Active. Also, the outcome in the data set on dengue virus type 2, in the data set with Zika virus, with dengue virus type 3 and with West Nile virus was inactive. Besides, the inhibition entry in data set [6] was “Active”.

The Km is the concentration of substrate that gives half-maximal velocity. By Vmax is commonly meant the rate approached at saturating substrate.
